The source of these data is patent US20250281665A1, “BIONIC DRESSING-FORMING COMPOSITION, BIONIC DRESSING, AND METHOD OF FORMING THE BIONIC DRESSING” (THE HONG KONG POLYTECHNIC UNIVERSITY, priority 2024, published 2025).

SMILES strings stand for the structures.

This series concerns 3T3 cells. The experiment in a line: Biocompatibility evaluation (live/dead, CCK-8, extract medium). Format: cell-based. As to the method:
The tests in this example were conducted under the following conditions/standards. • 5. Mechanical property test: The mechanical properties of bionic excipients were based on the ASTM F2458-05 standard. GelMA, PGLADMA and double-layer GelMA/PGLADMA samples with a size of 20×5 mm were prepared and stretched at a rate of 1 mm/min using a two-arm mechanical tensile instrument at room temperature, and the mechanical properties were calculated, where tensile elastic modulus=stress/strain. For example, reference can be made to the test method in Theocharidis G, Yuk H, Roh H, et al. A strain-programmed patch for the healing of diabetic wounds [J]. Nature biomedical engineering, 2022, 6 (10): 1118-1133. • 6. Hemostatic property: For the hemostatic properties of bionic excipients, for example, reference can be made to Guo Y, Wang Y, Zhao X, et al. Snake extract-laden hemostatic bioadhesive gel cross-linked by visible light [J]. Science Advances, 2021, 7 (29): cabf9635. • 7. […] After 1, 2, and 3 days of incubation, cell viability and cell proliferation were evaluated using a live/dead cell detection kit (Thermo Fisher, Hong Kong) and a CCK-8 kit (Sigma-Aldrich, Hong Kong), respectively. […]

As for `Oc1cc(Cl)ccc1Oc1ccc(Cl)cc1Cl` [TCS, triclosan], the toxicity to cells entry by setting is: (TCS concentration below 5%) “no toxicity”; (TCS concentration of around 10%) “only slightly toxic”.
